Test results from patent publication US8487113B2, “Method for the preparation of tizanidine hydrochloride” (Farmak, A.S., priority 2008, dated 2013).
Counter-ions that a name gives are not always drawn.

Experiments:
[1] = per 1 g of substance, crystallization as in EP 644 192
[2] = per 1 g of substance, crystallization as in U.S. Pat. No. 3,843,668

Row | volume of ethanol needed for dissolution of 1 g [1] | volume of methanol needed for dissolution of 1 g [2] | Compound
1 | at least 43 ml |  | Clc1ccc2nsnc2c1NC1=NCCN1 [tizanidine hydrochloride]
2 |  | at least 37 ml | Clc1ccc2nsnc2c1NC1=NCCN1 [tizanidine base, 5-chloro-4-(2-imidazolin-2-yl-amino)-2,1,3-benzothiadiazole]
